Results as given in patent publication US20240383892A1, “PARTICLES OF IMIDAZO[4,5-b]PYRIDINE COMPOUND, PHARMACEUTICAL COMPOSITIONS, AND THEIR USE IN TREATING MEDICAL CONDITIONS” (Centrexion Therapeutics Corporation, priority 2023, published 2024).
Each block holds one compound with its values, some of them ahead of it.

Experiments:
Format in all cases: physicochemical
[1] = Stability comparison of crystalline forms: temperature of dehydration
Text: Stability of crystalline 3-(3-methoxy-4-((4-methoxybenzyl)oxy)benzyl)-6-(1-methyl-1H-pyrazol-4-yl)-3H-imidazo[4,5-b]pyridin-2-amine monohydrate Form 3 was compared to crystalline 3-(3-methoxy-4-((4-methoxybenzyl)oxy)benzyl)-6-(1-methyl-1H-pyrazol-4-yl)-3H-imidazo[4,5-b]pyridin-2-amine monohydrate Form 1. The physical property analyzed was temperature of dehydration. Crystalline 3-(3-methoxy-4-((4-methoxybenzyl)oxy)benzyl)-6-(1-methyl-1H-pyrazol-4-yl)-3H-imidazo[4,5-b]pyridin-2-amine monohydrate Form 1 is that described in international patent application publication WO 2016/100677.

[2] = Dynamic vapor sorption (hygroscopicity); settings: 2 cycles of increasing and decreasing relative humidity at 25° C., FIG. 3
Experimental: A dynamic vapor sorption isotherm plot of crystalline 3-(3-methoxy-4-((4-methoxybenzyl)oxy)benzyl)-6-(1-methyl-1H-pyrazol-4-yl)-3H-imidazo[4,5-b]pyridin-2-amine monohydrate Form 3 is provided in FIG. 3. The dynamic vapor sorption isotherm plot results are from the procedure where after a drying stage at 0% relative humidity, compound sample was exposed to 2 cycles of increasing and decreasing relative humidity at 25° C., with steps of 5% relative humidity, where mass of the sample was recorded throughout the experiment.

[3] = Particle size analysis, Malvern Mastersizer 2000; settings: dispersant 0.2% (w/v) Igepal in RO water
Experimental: Particle size analysis was performed on the particles using a Malvern Mastersizer 2000 particle size analyzer equipped with a Hydro2000S sample dispersion unit. Instrument parameters and experimental conditions are set forth below:
A 50 mg±5 mg of sample of particles was weighed and placed in a 20 mL plastic blood dilution vial. Five drops of dispersant (0.2% (w/v) Igepal in RO water) was added to the vial and mixed to a slurry using the flat end of a spatula. Dispersant (20 mL) was then added and stirred with a spatula to begin dispersion. The sample vial was placed onto a magnetic stir plate and stirred for 5 minutes. While stirring, we withdrew an aliquot of the dispersed sample using a transfer pipet and transferred it to the Hydro2000S until an obscuration of 10-30% was obtained. The sample was allowed to recirculate for 5 minutes at 2500 RPM prior to initiating the sample measurement.

temperature of dehydration ([1]; under a stream of nitrogen gas): room temperature
Structure (SMILES): COc1ccc(COc2ccc(Cn3c(N)nc4cc(-c5cnn(C)c5)cnc43)cc2OC)cc1 [Form 1, 3-(3-methoxy-4-((4-methoxybenzyl)oxy)benzyl)-6-(1-methyl-1H-pyrazol-4-yl)-3H-imidazo[4,5-b]pyridin-2-amine monohydrate]

hygroscopicity (dynamic vapor sorption isotherm) [2]: not hygroscopic
temperature of dehydration ([1]; heated): 130 °C
Structure (SMILES): COc1ccc(COc2ccc(Cn3c(N)nc4cc(-c5cnn(C)c5)cnc43)cc2OC)cc1 [Form 3, 3-(3-methoxy-4-((4-methoxybenzyl)oxy)benzyl)-6-(1-methyl-1H-pyrazol-4-yl)-3H-imidazo[4,5-b]pyridin-2-amine monohydrate]

Particle Size Parameter D10 [3]: 18.6 µm
Particle Size Parameter D50 [3]: 56.5 µm
Particle Size Parameter D90 [3]: 131 µm
Structure (SMILES): COc1ccc(COc2ccc(Cn3c(N)nc4cc(-c5cnn(C)c5)cnc43)cc2OC)cc1 [Particles Prepared in Part I, 3-(3-methoxy-4-((4-methoxybenzyl)oxy)benzyl)-6-(1-methyl-1H-pyrazol-4-yl)-3H-imidazo[4,5-b]pyridin-2-amine monohydrate]
